# Patent US20190381071A1, “METHODS AND COMPOSITIONS FOR TREATING AND/OR PREVENTING THE PROGRESSION AND/OR ONSET OF AGE-RELATED NEURODEGENERATION” (Enterin, Inc., priority 2018, published 2019)
# Entries after “also recorded” stand apart in the source; their conditions may differ.
# Tests used:
# B6D2F1 (BDF1) mice = experiment: Dose response of growth delay in BDF1 mice (Example 1, FIG. 2); format: in vivo; settings: for age at which animals reached maturity: male BDF1 mice, controls 120 days; for delay in reaching maturity, as measured by end weight: vs control
# Procedure: While all animals reached the mature weight of about 40 grams, the control animals reached maturity at 120 days, and the animals that received 5 and 10 mg/kg of Aminosterol 1436 reached maturity at 150 and 255 days, respectively.
# An experiment was conducted to explore the dose response to a delay in growth of B6D2F1 (BDF1) mice to Aminsoterol 1436.
# 30 day old male BDF1 mice received either vehicle or Aminosterol 1436 intraveneously (IV) at 5 mg/kg or 10 mg/kg (n=15 for each treatment arm) every 3 days until 51 days of age. The Aminosterol 1436 was administered as a aqueous solution in water. BDF1 mice are available from Charles River Laboratories. The animals were fed standard lab chow, offered ad libitum. The animals were weighed and body length measured every 5 days.
# However, while the control animals reached maturity at 120 days, the animals that received 5 mg/kg of Aminosterol 1436 reached maturity at 150 days, corresponding to a 25% delay in reaching maturity, as measured by end weight. […] Most importantly, both treated and untreated animals reached normal adult dimensions, albeit at different rates.
# C57BL/6 males = experiment: Growth delay in C57BL/6 mice (Example 2, FIG. 3); format: in vivo; settings: for weight: 10 mg/kg i.p. every 3 days for two doses
# Procedure: Animals were then weighed and body length measured once weekly for a period of 40 days.
# An experiment was conducted to determine whether treatment of animals with Aminosterol 1436 would delay growth of the animal.
# C57BL/6 males (12-16 grams) were administered either vehicle or 10 mg/kg (i.p.) of Aminosterol 1436 every 3 days for two doses, for a total of 20 mg/kg over a 6 day period. The mice were about 3 weeks old, and there were 10 mice/arm. The animals were weighed and body length measured once weekly for a period of 40 days.
# The results shown in FIG. 3 indicate that growth rates of the animals were slowed upon administration of Aminosterol 1436, which is consistent with the results shown in FIG. 2 and described in Example 1.
# [1] = Brain localisation of radioactive Aminosterol 1436 after IV or ICV administration (FIG. 1); format: in vivo; settings: radioactive compound, rat, IV via peripheral vein or injected into 3rd ventricle (ICV)
# Excerpt: The exact mechanism by which Aminosterol 1436 achieves its effect on preventing, delaying onset, and/or treating neurodegeneration, delaying maturity, retarding aging, and increasing potential lifespan is not known. However, without being bound by theory, Applicant theorizes that the effect of Aminosterol 1436 is likely in part due to the drug's effects on the hypothalamus within the brain of the animal.
# adult mouse = experiment: Neuroregeneration in adult mouse brain; format: in vivo
# Excerpt: The hypothalamus is of particular interest because it happens to be the site of localization of Aminosterol 1436 in the brain.
# HIV = settings: tissue culture; U.S. Pat. No. 5,763,430; cited from earlier work
# [2] = U.S. Pat. No. 6,143,738; Ahima et al. (2002); cited from earlier work
# phosphatase PTP1B = target: T1, phosphatase PTP1B (Homo sapiens, UniProt P18031); settings: Lantz et al., 2010; cited from earlier work
# T1 sequence (P18031 1-435): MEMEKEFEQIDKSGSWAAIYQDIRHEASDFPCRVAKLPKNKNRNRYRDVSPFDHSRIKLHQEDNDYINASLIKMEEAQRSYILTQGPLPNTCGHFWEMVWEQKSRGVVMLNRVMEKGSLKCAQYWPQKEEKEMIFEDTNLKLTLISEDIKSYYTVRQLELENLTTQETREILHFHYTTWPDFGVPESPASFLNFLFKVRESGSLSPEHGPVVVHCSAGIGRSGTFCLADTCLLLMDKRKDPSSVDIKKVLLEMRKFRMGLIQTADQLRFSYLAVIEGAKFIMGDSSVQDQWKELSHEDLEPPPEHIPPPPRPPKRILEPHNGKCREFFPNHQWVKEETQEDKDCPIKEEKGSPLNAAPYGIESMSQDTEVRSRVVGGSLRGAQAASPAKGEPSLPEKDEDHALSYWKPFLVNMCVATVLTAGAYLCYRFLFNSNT
SMILES,growth rate slower than the controls (by increasing weight) (B6D2F1 (BDF1) mice; 5 mg/kg IV),age at which animals reached maturity (B6D2F1 (BDF1) mice; 5 mg/kg IV every 3 days from 30 to 51 days of age) [days],"delay in reaching maturity, as measured by end weight (B6D2F1 (BDF1) mice; 5 mg/kg IV) [%]",growth rate slowed (by increasing weight) (B6D2F1 (BDF1) mice; 10 mg/kg IV) [%],age at which animals reached maturity (B6D2F1 (BDF1) mice; 10 mg/kg IV every 3 days from 30 to 51 days of age) [days],"delay in reaching maturity, as measured by end weight (B6D2F1 (BDF1) mice; 10 mg/kg IV) [%]","linear growth (B6D2F1 (BDF1) mice; 5 and 10 mg/kg IV, data not shown)","mature weight reached (B6D2F1 (BDF1) mice; all animals (5 mg/kg, 10 mg/kg and control))","weight (C57BL/6 males; Day 0, control 16 g) [g]","decrease in weight (C57BL/6 males; Day 0 to Day 40, 10 mg/kg i.p. x 2, control increase of 50%) [%]","weight (C57BL/6 males; Day 40, control 24 g) [g]",accumulation in brain [1],neuroregeneration (adult mouse),"number of cells in brain areas (adult mouse; subependymal zone, granular layers of olfactory bulb, medial and lateral hypothalamus, thalamus)",antiviral activity against HIV (HIV),appetite suppression and weight loss [2],inhibition of PTP1B (phosphatase PTP1B)
"CC(C)[C@@H](CC[C@@H](C)[C@H]1CC[C@H]2[C@@H]3[C@H](O)C[C@H]4C[C@@H](NCCCNCCCCNCCCN)CC[C@]4(C)[C@H]3CC[C@]12C)OS(=O)(=O)O [Aminosterol 1436, trodusquemine]",about 30%,150,25,50,255,112.5,slowed to a corresponding degree,about 40 grams,12,8.3,11,"accumulation of Aminosterol 1436 within the centers of the brain that control growth, maturation, and senescence; also recorded: accumulates within the centers of the brain that control growth, maturation and senescence",stimulates neuroregeneration,increase,exhibits antiviral activity against HIV,potent appetite suppression and promotion of dose-dependent weight loss,inhibit the phosphatase PTP1B
"CC(C)[C@@H](CC[C@@H](C)[C@H]1CC[C@H]2[C@@H]3[C@H](O)C[C@H]4C[C@@H](NCCCNCCCCN)CC[C@]4(C)[C@H]3CC[C@]12C)OS(=O)(=O)O [squalamine, reference compound]",–,–,–,–,–,–,–,–,–,–,–,–,–,–,–,not shared with squalamine,–
